According to ChEMBL document CHEMBL3351435, “New pyrrole derivatives with potent tubulin polymerization inhibiting activity as anticancer agents including hedgehog-dependent cancer” (J Med Chem, 2014):
Calls of active or inactive are those of the source. No cut-off for these calls is given here.

Key:
cells = details: Homo sapiens, OVCAR-8, 96 h
Description: Cytotoxicity against human OVCAR8 cells assessed as growth inhibition after 96 hrs by Giemsa staining-based light microscopy

RD [1] = assay: Cell cycle arrest in human RD cells assessed as rounded cells at 500 nM after 24 hrs by propidium iodide staining-based flow cytometry; format: functional
CYP2C19 = CYP2C19 (Homo sapiens, UniProt P33261); assay: Inhibition of human CYP2C19 using tranylcypromine as substrate at 1 uM; format: ADME; details: probe tranylcypromine
Chain of CYP2C19 (P33261 whole entry): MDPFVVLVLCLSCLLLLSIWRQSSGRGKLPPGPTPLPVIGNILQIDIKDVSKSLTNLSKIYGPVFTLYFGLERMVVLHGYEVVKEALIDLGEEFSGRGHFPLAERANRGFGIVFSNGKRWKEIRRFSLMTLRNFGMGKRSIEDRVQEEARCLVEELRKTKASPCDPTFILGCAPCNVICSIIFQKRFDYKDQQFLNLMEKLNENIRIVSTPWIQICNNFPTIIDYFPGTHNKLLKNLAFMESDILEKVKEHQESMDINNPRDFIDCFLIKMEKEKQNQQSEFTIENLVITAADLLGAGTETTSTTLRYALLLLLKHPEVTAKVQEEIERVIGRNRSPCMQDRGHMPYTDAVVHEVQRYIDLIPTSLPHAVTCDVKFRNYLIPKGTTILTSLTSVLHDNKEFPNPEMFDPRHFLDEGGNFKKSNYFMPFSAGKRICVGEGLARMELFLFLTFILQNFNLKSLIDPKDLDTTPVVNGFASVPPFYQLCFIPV

[2] = Initial plasma concentration in CD-1 mouse at 5 mg/kg, iv; format: ADME, organism-based; set-up: dose 5 mg/kg, route intravenous
HeLa [3] = assay: Cell cycle arrest in human HeLa cells assessed as accumulation at G2/M phase at 100 nM by propidium iodide staining-based flow cytometry; format: functional
HeLa [4] = assay: Induction of apoptosis in human HeLa cells assessed as failure of MT elongation at 20 nM by immunofluorescence analysis; format: functional, cell-based
Tubulin (Homo sapiens) = Tubulin (Homo sapiens) (UniProt P68371+Q9H4B7+P0DPH7+P68366+Q13509+Q71U36+P04350+Q3ZCM7+P07437+P68363+Q9BQE3+Q6PEY2+Q13885+Q9BVA1+Q9BUF5); assay: Displacement of [3H]colchicine from tubulin (unknown origin) at 5 uM after 10 mins; format: protein-complex assay
HeLa [5] = assay: Cell cycle arrest in human HeLa cells assessed as mitotic rounded-up phenotype at 100 nM by light microscopy; format: functional, cell-based
HeLa [6] = assay: Cell cycle arrest in human HeLa cells assessed as mitotic rounded-up phenotype at 20 nM by light microscopy; format: functional, cell-based
Mus musculus [7] = assay: AUC (0 to 480 mins) in CD-1 mouse at 15 mg/kg, po; format: ADME, organism-based, Plasma; set-up: time < 8 hr, dose 15 mg/kg, route oral; details: in vivo, 8 h
RD [8] = assay: Induction of apoptosis in human RD cells at 500 to 2000 nM after 48 hrs by annexin-V/propidium iodide staining-based flow cytometry; format: functional, cell-based
[9] = Elimination half life in CD-1 mouse at 5 mg/kg, iv; format: ADME, organism-based; set-up: dose 5 mg/kg, route intravenous; details: in vivo, read-out: beta t1/2
[10] = AUC infinity in CD-1 mouse at 15 mg/kg, po; format: ADME, organism-based; set-up: time infinity, dose 15 mg/kg, route oral; details: plasma
[11] = Cmax in CD-1 mouse at 15 mg/kg, po; format: ADME, organism-based; set-up: dose 15 mg/kg, route oral; details: in vivo
[12] = Cytotoxicity against human PC3 cells assessed as growth inhibition after 48 hrs by MTT method; format: functional, cell-based; details: PC-3, 48 h
[13] = Mean residence time in CD-1 mouse at 5 mg/kg, iv; format: ADME, organism-based; set-up: dose 5 mg/kg, route intravenous; details: in vivo
[14] = Elimination half life in CD-1 mouse at 15 mg/kg, po; format: ADME, organism-based; set-up: dose 15 mg/kg, route oral; details: in vivo, read-out: beta t1/2
[15] = Cytotoxicity against human D283 cells; format: functional, cell-based
Mus musculus [16] = assay: Oral bioavailability (last) in CD-1 mouse at 15 mg/kg; format: ADME, organism-based; details: in vivo
Mus musculus [17] = assay: Tlast in CD-1 mouse at 15 mg/kg, po; format: ADME, organism-based; set-up: dose 15 mg/kg, route oral; details: in vivo
[18] = Cmax in CD-1 mouse at 5 mg/kg, iv; format: ADME, organism-based; set-up: dose 5 mg/kg, route intravenous; details: in vivo
HeLa [19] = assay: Cell cycle arrest in human HeLa cells assessed as accumulation at G2/M phase at 20 nM by propidium iodide staining-based flow cytometry; format: functional
CYP2C9 = CYP2C9 (Homo sapiens, UniProt P11712); assay: Inhibition of human CYP2C9 using sulfaphenazole as substrate at 1 uM; format: ADME; details: probe sulfaphenazole
Chain of CYP2C9 (P11712 whole entry): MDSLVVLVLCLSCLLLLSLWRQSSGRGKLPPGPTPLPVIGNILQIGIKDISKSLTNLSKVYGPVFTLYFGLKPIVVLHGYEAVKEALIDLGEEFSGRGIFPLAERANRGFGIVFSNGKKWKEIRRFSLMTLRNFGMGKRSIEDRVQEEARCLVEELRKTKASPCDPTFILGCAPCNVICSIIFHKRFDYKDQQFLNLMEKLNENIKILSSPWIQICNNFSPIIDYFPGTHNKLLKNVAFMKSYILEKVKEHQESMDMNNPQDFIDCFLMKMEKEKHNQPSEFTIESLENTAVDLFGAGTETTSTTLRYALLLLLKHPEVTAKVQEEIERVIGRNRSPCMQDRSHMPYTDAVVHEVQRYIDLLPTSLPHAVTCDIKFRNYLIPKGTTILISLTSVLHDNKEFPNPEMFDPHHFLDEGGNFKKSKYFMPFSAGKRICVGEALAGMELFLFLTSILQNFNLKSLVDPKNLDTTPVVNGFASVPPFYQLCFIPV

CYP3A4 = CYP3A4 (Homo sapiens, UniProt P08684); assay: Inhibition of human CYP3A4 using ketoconazole as substrate at 1 uM; format: ADME; details: probe ketoconazole
Chain of CYP3A4 (P08684 whole entry): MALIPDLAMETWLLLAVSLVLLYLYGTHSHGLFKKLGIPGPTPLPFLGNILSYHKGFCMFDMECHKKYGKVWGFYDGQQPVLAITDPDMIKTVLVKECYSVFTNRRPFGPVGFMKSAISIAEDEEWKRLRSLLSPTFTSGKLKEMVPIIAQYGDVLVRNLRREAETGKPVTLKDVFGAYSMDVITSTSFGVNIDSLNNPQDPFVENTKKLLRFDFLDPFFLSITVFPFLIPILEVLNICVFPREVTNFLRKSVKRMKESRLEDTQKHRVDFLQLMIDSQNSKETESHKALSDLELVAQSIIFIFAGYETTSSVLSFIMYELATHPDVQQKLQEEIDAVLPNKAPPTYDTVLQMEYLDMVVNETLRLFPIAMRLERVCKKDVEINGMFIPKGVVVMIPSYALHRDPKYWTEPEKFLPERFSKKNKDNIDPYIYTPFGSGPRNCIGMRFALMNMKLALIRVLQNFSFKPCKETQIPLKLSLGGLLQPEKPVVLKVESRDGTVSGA

HepG2 [20] = assay: Cell cycle arrest in human HepG2 cells assessed as rounded cells at 500 nM after 24 hrs by propidium iodide staining-based flow cytometry; format: functional
[21] = Tmax in CD-1 mouse at 15 mg/kg, po; format: ADME, organism-based; set-up: dose 15 mg/kg, route oral; details: in vivo
HepG2 [22] = assay: Induction of apoptosis in human HepG2 cells at 500 to 2000 nM after 48 hrs by annexin-V/propidium iodide staining-based flow cytometry; format: functional, cell-based
[23] = Volume of distribution at steady state in CD-1 mouse at 5 mg/kg, iv; format: ADME, organism-based; set-up: dose 5 mg/kg, route intravenous; details: in vivo, read-out: Vdss
MCF7 = assay: Cytotoxicity against human MCF7 cells after 96 hrs by Giemsa staining-based light microscopy; format: functional, cell-based; details: MCF7, 96 h
RD [24] = assay: Cell cycle arrest in human RD cells assessed as accumulation at G2/M phase at 500 nM after 24 hrs by propidium iodide staining-based flow cytometry; format: functional
RD [25] = assay: Cytotoxicity against human RD cells assessed as growth inhibition after 48 hrs by MTT method; format: functional, cell-based
HeLa [26] = assay: Cell cycle arrest in human HeLa cells by propidium iodide staining-based flow cytometry; format: functional
[27] = Cell cycle arrest in human PC3 cells assessed as accumulation at G2/M phase at 500 nM after 24 hrs by propidium iodide staining-based flow cytometry; format: functional; details: PC-3
K562 = assay: Cytotoxicity against human K562 cells assessed as growth inhibition after 96 hrs by Giemsa staining-based light microscopy; format: functional, cell-based; details: K562, 96 h
HepG2 [28] = assay: Cell cycle arrest in human HepG2 cells assessed as accumulation at G2/M phase at 500 nM after 24 hrs by propidium iodide staining-based flow cytometry; format: functional
HeLa [29] = assay: Cell cycle arrest in human HeLa cells assessed as reduction in mitotic slippage at 100 nM by annexin V staining-based immunofluorescence microscopy; format: functional
Mus musculus [30] = assay: Clast in CD-1 mouse at 5 mg/kg, iv; format: ADME, organism-based; set-up: dose 5 mg/kg, route intravenous; details: in vivo
A549 = assay: Cytotoxicity against human A549 cells assessed as growth inhibition after 48 hrs by MTT method; format: functional, cell-based; details: A549, 48 h
[31] = AUC infinity in CD-1 mouse at 5 mg/kg, iv; format: ADME, organism-based; set-up: time infinity, dose 5 mg/kg, route intravenous; details: plasma
CYP1A2 = target: T1, CYP1A2 (Homo sapiens, UniProt P05177); assay: Inhibition of human CYP1A2 using furafylline as substrate at 1 uM; format: ADME; details: probe furafylline
T1 sequence (P05177 whole entry): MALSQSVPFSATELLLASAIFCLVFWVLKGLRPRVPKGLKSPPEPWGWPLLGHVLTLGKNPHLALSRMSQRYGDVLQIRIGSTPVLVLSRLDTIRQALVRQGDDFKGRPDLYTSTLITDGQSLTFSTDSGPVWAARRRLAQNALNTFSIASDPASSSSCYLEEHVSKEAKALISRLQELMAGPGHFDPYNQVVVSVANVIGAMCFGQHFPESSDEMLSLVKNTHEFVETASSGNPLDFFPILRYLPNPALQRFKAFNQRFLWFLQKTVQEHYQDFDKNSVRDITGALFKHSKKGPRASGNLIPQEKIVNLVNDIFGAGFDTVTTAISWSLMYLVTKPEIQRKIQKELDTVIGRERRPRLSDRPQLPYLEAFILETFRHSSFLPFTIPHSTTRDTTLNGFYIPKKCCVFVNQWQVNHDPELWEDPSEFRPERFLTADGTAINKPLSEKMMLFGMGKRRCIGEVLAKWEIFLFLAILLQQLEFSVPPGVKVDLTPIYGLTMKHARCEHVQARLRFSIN

HepG2 [32] = assay: Cell cycle arrest in human HepG2 cells at 500 to 2000 nM incubated for 24 hrs followed by compound washout measured after 24 hrs; format: functional, cell-based
HeLa [33] = assay: Induction of apoptosis in human HeLa cells assessed as blockage of mitotic progression at 100 nM by annexin V staining-based immunofluorescence microscopy; format: functional, cell-based
[34] = Clearance in CD-1 mouse at 5 mg/kg, iv; format: ADME, organism-based; set-up: dose 5 mg/kg, route intravenous; details: in vivo

COc1cc(C(=O)c2ccn(-c3cccc(N)c3)c2)cc(OC)c1OC
IC50 (cells): 7 nM
Activity (RD [1]): Active
inhibition at 1 µM (CYP2C19): 72.6%
C0 [2]: 4150 ng/mL
Activity (HeLa [3]): Active
Activity (HeLa [4]): Active
inhibition (Tubulin (Homo sapiens)): 86%
Activity (HeLa [5]): Active
Activity (HeLa [6]): Active
AUC (Mus musculus [7]): 79441 ng·min/mL
Activity (RD [8]): Active
half-life [9]: 74 min
AUC(0-inf) [10]: 1470 ng·h/mL
Cmax [11]: 1770 ng/mL
IC50 [12]: 9.8 nM
MRT [13]: 31 min
half-life [14]: 179 min
IC50 [15]: 580 nM
F (Mus musculus [16]): 49%
Tlast (Mus musculus [17]): 480 min
Cmax [18]: 3400 ng/mL
Activity (HeLa [19]): Active
inhibition at 1 µM (CYP2C9): 28.9%
inhibition at 1 µM (CYP3A4): 12.2%
Activity (HepG2 [20]): Active
Tmax [21]: 5 min
Activity (HepG2 [22]): Active
Vd [23]: 2.7 L/kg
IC50 (MCF7): 15 nM
Activity (RD [24]): Active
IC50 (RD [25]): 95.3 nM
Activity (HeLa [26]): Dose-dependent effect
Activity [27]: Active
IC50 (K562): 20 nM
Activity (HepG2 [28]): Active
Activity (HeLa [29]): inactive
Clast (Mus musculus [30]): 2.3 ng/mL
IC50 (A549): 10 nM
AUC(0-inf) [31]: 1030 ng·h/mL
inhibition at 1 µM (CYP1A2): 66.8%
Activity (HepG2 [32]): inactive
Activity (HeLa [33]): Active
clearance [34]: 80.8 mL/min/kg
